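Assay format: 96-well plates, 48-hour exposure. The concentration for full growth arrest is given as TGI.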
Assays:
Assay in all cases: NCI anticancer screen, dose series, 48 h
786-0 renal = test system: 786-0 renal
A498 renal = test system: A498 renal
A549 NSCLC = test system: A549 NSCLC
ACHN renal = test system: ACHN renal
CAKI-1 renal = test system: CAKI-1 renal
DLD-1 colon = test system: DLD-1 colon
DMS 114 small cell lung = test system: DMS 114 small cell lung
DMS 273 small cell lung = test system: DMS 273 small cell lung
EKVX NSCLC = test system: EKVX NSCLC
HCC-2998 colon = test system: HCC-2998 colon
HCT-116 colon = test system: HCT-116 colon
HCT-15 colon = test system: HCT-15 colon
HL-60(TB) leukemia = test system: HL-60(TB) leukemia
HOP-18 NSCLC = test system: HOP-18 NSCLC
HOP-62 NSCLC = test system: HOP-62 NSCLC
HOP-92 NSCLC = test system: HOP-92 NSCLC
HT29 colon = test system: HT29 colon
IGROV1 ovarian = test system: IGROV1 ovarian
K-562 leukemia = test system: K-562 leukemia
KM12 colon = test system: KM12 colon
KM20L2 colon = test system: KM20L2 colon
LOX IMVI melanoma = test system: LOX IMVI melanoma
LXFL 529 NSCLC = test system: LXFL 529 NSCLC
M14 melanoma = test system: M14 melanoma
M19-MEL melanoma = test system: M19-MEL melanoma
MALME-3M melanoma = test system: MALME-3M melanoma
MOLT-4 leukemia = test system: MOLT-4 leukemia
NCI-H226 lung = test system: NCI-H226 lung
NCI-H23 lung = test system: NCI-H23 lung
NCI-H460 lung = test system: NCI-H460 lung
OVCAR-3 ovarian = test system: OVCAR-3 ovarian
OVCAR-4 ovarian = test system: OVCAR-4 ovarian
OVCAR-5 ovarian = test system: OVCAR-5 ovarian
OVCAR-8 ovarian = test system: OVCAR-8 ovarian
RPMI-8226 leukemia = test system: RPMI-8226 leukemia
RXF 393 renal = test system: RXF 393 renal
RXF-631 renal = test system: RXF-631 renal
SF-268 CNS = test system: SF-268 CNS
SF-295 CNS = test system: SF-295 CNS
SF-539 CNS = test system: SF-539 CNS
SK-MEL-2 melanoma = test system: SK-MEL-2 melanoma
SK-MEL-28 melanoma = test system: SK-MEL-28 melanoma
SK-MEL-5 melanoma = test system: SK-MEL-5 melanoma
SN12C renal = test system: SN12C renal
SNB-19 CNS = test system: SNB-19 CNS
SNB-75 CNS = test system: SNB-75 CNS
SNB-78 CNS = test system: SNB-78 CNS
SW-620 colon = test system: SW-620 colon
TK-10 renal = test system: TK-10 renal
U251 CNS = test system: U251 CNS
UACC-257 melanoma = test system: UACC-257 melanoma
UACC-62 melanoma = test system: UACC-62 melanoma
UO-31 renal = test system: UO-31 renal
XF 498 CNS = test system: XF 498 CNS
CCRF-CEM leukemia = test system: CCRF-CEM leukemia
COLO 205 colon = test system: COLO 205 colon
NCI-H522 lung = test system: NCI-H522 lung
SK-OV-3 ovarian = test system: SK-OV-3 ovarian
SR leukemia = test system: SR leukemia

Measured: TGI

CCc1nc(N)nc(C(=O)NCCNC(=O)c2nc(N)nc(CC)c2C)c1C
not listed: CCRF-CEM leukemia | COLO 205 colon | NCI-H522 lung | SK-OV-3 ovarian | SR leukemia
> 100 µM: all other assays above

Cc1cccc2[s+]snc12
43.4 µM: RXF-631 renal
> 63.7 µM: OVCAR-8 ovarian
> 81.4 µM: RPMI-8226 leukemia
> 65.2 µM: MOLT-4 leukemia
> 65.1 µM: CCRF-CEM leukemia
> 89 µM: OVCAR-3 ovarian
35.9 µM: NCI-H522 lung
> 92.5 µM: LXFL 529 NSCLC
77.8 µM: SR leukemia
59.3 µM: K-562 leukemia
44.9 µM: HOP-92 NSCLC
> 70.7 µM: SK-MEL-28 melanoma
48.9 µM: SW-620 colon
41.8 µM: HL-60(TB) leukemia
> 67.3 µM: MALME-3M melanoma
> 75.1 µM: RXF 393 renal
> 72.3 µM: HCT-15 colon
74.9 µM: DLD-1 colon
50.8 µM: COLO 205 colon
> 77.4 µM: EKVX NSCLC
> 100 µM: all other assays above

O=C1C(=O)c2ccccc2C(O)=C1CN(CCCl)CCCl
77.9 µM: IGROV1 ovarian
not listed: DMS 114 small cell lung | DMS 273 small cell lung | HOP-18 NSCLC | LOX IMVI melanoma | NCI-H226 lung | RPMI-8226 leukemia | UACC-257 melanoma | COLO 205 colon
> 100 µM: all other assays above

— PubChem BioAssay (NCI)
